# Laboratory results from patent US20210171576A1, “METHODS FOR TREATING CANCER WITH ACYLDEPSIPEPTIDE ANALOGS” (priority 2018, published 2021).
# Where a SMILES comes first, the peptide text is derived from it. Bridges are numbered along the chain shown (N, C = ends). [ ]: non-standard residue; d: D form. The star is where a group is joined. Phe(3,5-F2) = N[C@@H](Cc1cc(F)cc(F)c1)C(=O)O; Heptenoyl(2E) = CCCC/C=C/C(=O)*; aThr = C[C@H](O)[C@H](N)C(=O)O; Pip = O=C(O)[C@@H]1CCCCN1
# Columns and labels:
# [1] = tested on: HEK293 T-REx WT cells; assay: Western blots for HsCIpX and apoptotic protein markers; assay type: cell-based, human
# Experimental: Cells were harvested by the standard trypsinization protocol and counted with a hemocytometer. Cell lysates were prepared by first re-suspending the cells in PBS at 5×10^6 cells/mL, followed by sonication. Proteins in the lysates were analyzed by Western blotting using Immobilin-P PVDF membranes (EMD Millipore). Blots were imaged and analyzed with the ChemiDoc XRS+ System (BioRad). Quantification of HsCIpP expression was performed by densitometry using the Quantity One 1D Analysis Software (BioRad). HsCIpP expression levels were corrected for sample loading errors and normalized to the expression level in HEK293 T-REx WT. Primary antibodies for HsCIpP, HsCIpX and GAPDH were purchased from Abcam. Primary antibodies for Caspase-8, Caspase-9 and PUMA were purchased from Cell Signaling Technologies. The primary antibody for Caspase-3 was purchased from R&D Systems. Primary antibodies for Mcl-1 and Bcl-2 were purchased from EMD Millipore. The primary antibody for the FLAG-tag was purchased from Sigma-Aldrich. HRP-conjugated goat anti-rabbit IgG (for HsCIpX, Caspase-8, Caspase-9 and PUMA) and HRP-conjugated goat anti-mouse IgG (for HsCIpP, Mcl-1, Bcl-2, GAPDH and FLAG-tag) were purchased from BioRad. HRP-conjugated rabbit anti-goat IgG (for Caspase-3) was purchased from Sigma-Aldrich.
# [2] = tested on: HEK293 T-REx+CLPPS153A-FLAG cells; assay: Cytotoxicity, SRB staining, with or without Dox
# Experimental: To assess the cytotoxicity of ADEP analogs, cells were seeded at 1×10^3 or 2×10^3 cells in 50 μL per well on sterile 96-well flat-bottom tissue culture plates (VWR). Growth media without any cells was included as a control. Cells were grown for at least 24 hours to allow proper adherence to the growth surface. Afterwards, ADEP analogs were serially diluted and introduced to the tissue cultures via fresh growth media at 50 μL per well. Inclusion of activators/DMSO brought the final DMSO concentration of the growth media up to a maximum of 0.5% (v:v). For experiments that involve overexpression of FLAG-tagged HsCIpP (WT or S153A mutant), Dox (Sigma-Aldrich) was also applied at 0.4 μg/mL (final concentration) as needed. A total of four independent replicates were prepared for each cell line and for each growth condition used. Cells were grown in the presence of ADEP/DMSO for 72 hours.
# (§1) To assess cell survival, live adherent cells were fixed with 10% (w:v) trichloroacetic acid (TCA) at 4° C. for 1-2 hours. The tissue culture plates were then rinsed with water to remove dead cells and cell debris and air-dried overnight. […] Absorbance at λ=510 nm (A510) was then measured using the EnSpire 2300 Multilabel Reader. […]
# (§2) To determine the IC50 for the ADEP analogs, relative cell viability (RCV) values were calculated by normalizing the A510 readings in ADEP-containing sample to the DMSO-only control. […]
# [3] = tested on: HeLa T-REx cells; assay: Cytotoxicity, SRB staining
# Experimental: (§3) To assess the cytotoxicity of ADEP analogs, cells were seeded at 1×10^3 or 2×10^3 cells in 50 μL per well on sterile 96-well flat-bottom tissue culture plates (VWR). Growth media without any cells was included as a control. Cells were grown for at least 24 hours to allow proper adherence to the growth surface. Afterwards, ADEP analogs were serially diluted and introduced to the tissue cultures via fresh growth media at 50 μL per well. Inclusion of activators/DMSO brought the final DMSO concentration of the growth media up to a maximum of 0.5% (v:v). […] A total of four independent replicates were prepared for each cell line and for each growth condition used. Cells were grown in the presence of ADEP/DMSO for 72 hours.
# as §1, §2
# [4] = tested on: U2OS cells; assay: Cytotoxicity, SRB staining
# Experimental: as §3, §1, §2
# [5] = tested on: HEK293 T-REx WT cells; assay: 3D Structured Illumination Microscopy (3DSIM) of mitochondrial morphology; assay type: cell-based, human; details: 2 μM
# Experimental: HEK293 T-REx WT and CLPP^'1/− cells were seeded on coverslips (Electron Microscopy Sciences) pre-coated with poly-D-lysine hydrobromide (Sigma-Aldrich) in a 12-well culture plate (Falcon). Cells were grown for 24 hours to allow adhesion, followed by treatment with 2 μM ADEP-41 or DMSO in the same manner as described in previous sections, for 24 or 72 hours. At these time points, the original media was removed, and cells were incubated for 30 minutes at 37° C., 5% CO2 with 200 nM MitoTracker Red CMXRos (Molecular Probes) in Opti-MEM™ Reduced Serum Medium (Gibco). Cells were then washed once with PBS and fixed with 4% (v/v) paraformaldehyde (Electron Microscopy Sciences) in PBS for 20 minutes at room temperature.
# The fixed cells were then washed twice with PBS, permeabilized with 0.2% (v/v) Triton X-100 (BioShop) in PBS for 10 minutes at room temperature and incubated with 2 μg/mL Hoechst 33342 (Molecular Probes) in PBS for 10 minutes at room temperature to counterstain nuclei. Coverslips were then washed three times with PBS+0.05% (v/v) Tween-20 and mounted on microscope glass slides (VWR) using 0.5% (w/v) propyl gallate (Sigma-Aldrich) dissolved in glycerol as the mounting medium.
# 3DSIM data were collected on the ELYRA PS.1 super resolution microscope (Carl Zeiss Microscopy) using a 63× (1.4 NA) Plan-Apochromatic oil immersion objective (Carl Zeiss Microscopy) and a 1.6× Optovar. […]
# [6] = tested on: HEK293 T-REx CLPP^−/− cells; assay: Cytotoxicity, SRB staining, 72 hours; details: CLPP^−/− cells lacking endogenous HsCIpP
# Experimental: To assess the cytotoxicity of ADEP analogs, cells were seeded at 1×10^3 or 2×10^3 cells in 50 μL per well on sterile 96-well flat-bottom tissue culture plates (VWR). Growth media without any cells was included as a control. Cells were grown for at least 24 hours to allow proper adherence to the growth surface. Afterwards, ADEP analogs were serially diluted and introduced to the tissue cultures via fresh growth media at 50 μL per well. Inclusion of activators/DMSO brought the final DMSO concentration of the growth media up to a maximum of 0.5% (v:v). […] A total of four independent replicates were prepared for each cell line and for each growth condition used. […]
# To assess cell survival, live adherent cells were fixed with 10% (w:v) trichloroacetic acid (TCA) at 4° C. for 1-2 hours. […] Absorbance at λ=510 nm (A510) was then measured using the EnSpire 2300 Multilabel Reader. […]
# as §2
# Assessment of cytotoxicity of ADEP-14 on human breast cancer cell lines (MDA-MB-231 WT, MDA-MB-231 CLPP-KD, MDA-MB-468, and MCF-7) and HEK cells (HEK293 T-Rex and HEK293 T-REx CLPP) were determined using the methods as described above in Example 1. […] Sulforhodamine B (SRB) staining method was used to quantify cell survival.
# [7] = tested on: undifferentiated SH-SY5Y cells; assay: Cytotoxicity, SRB staining
# Experimental: as §3, §1, §2
# [8] = tested on: HEK293 T-REx WT cells; assay: TUNEL assay, fluorescence microscopy; assay type: cell-based, human; details: 10 μM, 72 hours
# Experimental: Prior to use, the cover slips were cleaned by treatment with 1 M HCl for 2-3 days, followed by thorough rinsing with distilled water and a second treatment with 95% ethanol for 16-18 hours. The cleaned cover slips were sterilized by autoclaving and dried under UV light. To ensure proper attachment of the cells, the sterilized cover slips were coated with gelatin by application of a 0.2% solution and incubation at 37° C. for at least 2 hours. Excess gelatin solution was then removed, and the cover slips were allowed to dry in a sterile environment for 2-4 hours before use.
# WT cells treated with ADEP-41 were seeded at a density of 1×10^5 cells/mL (2 mL per well) to compensate for lack of cell growth and division resulting from the ADEP treatment. […]
# Cells were fixed in the presence of 4% formaldehyde at room temperature for 30-45 minutes, followed by membrane permeabilization with 0.1% Triton X-100 (in PBS from Gibco) supplemented with 0.1% sodium citrate at room temperature for 30 minutes. […] Cells were mounted onto standard glass microscope slides with DAPI Fluoromount-G (Southern Biotech) for visual examination using the Eclipse 80i fluorescence microscope (Nikon) equipped with the X-Cite Series 120Q excitation light source (Excelitas Technologies). Both light and fluorescence microscopic images were captured and analyzed using the NIS-Elements Basic Research Software (Nikon).
structure (smiles),measurement,setting,value
"CCCC/C=C/C(=O)N[C@@H](Cc1cc(F)cc(F)c1)C(=O)N[C@@H]1C(=O)N2CCC[C@H]2C(=O)N2CCCC[C@H]2C(=O)N[C@@H](C)C(=O)N2CCC[C@H]2C(=O)O[C@H]1C [ADEP-41] ({Heptenoyl(2E)}-[Phe(3,5-F2)][aThr]P[Pip]AP; ester 2-C)",activation-specific cleavage of Caspase-8,"[1]; 10 μM, 72 hours",no activation-specific cleavage was observed
same,activation-specific cleavage of Caspase-9 and Caspase-3,"[1]; 10 μM, 72 hours",activation-specific cleavage was detected
same,level of anti-apoptotic Bcl-2 protein,"[1]; 10 μM, 72 hours",no change
same,HsCIpX level,[1]; 20 μM 24 hours or 10 μM 72 hours,no longer detected
same,"activation-specific cleavage of Caspase-8, Caspase-9 or Caspase-3","[1]; 20 μM, 24 hours",no activation-specific cleavage was observed
same,anti-apoptotic Mcl-1 protein,"[1]; 20 μM, 24 hours",degraded
same,pro-apoptotic PUMA protein,"[1]; 20 μM, 24 hours",significantly upregulated
same,change in IC50,"[2]; 0.4 μg/mL Dox, inactive HsCIpP(S153A) overexpression",no change in IC50
same,sensitivity relative to WT,[2]; without Dox,equally sensitive
same,IC50 compared across cell lines,[3],similar
same,IC50 compared across cell lines,[4],similar
same,mitochondrial fragmentation,[5]; 24 hours,clear signs of mitochondrial fragmentation
same,mitochondrial fragmentation,[5]; 72 hours,very significant
same,sensitivity to ADEP-induced cytotoxicity,[6],resistant
same,IC50 compared across cell lines,[7],slightly higher value
same,TUNEL-positive cells relative to DMSO-treated WT cells,[8],about 20 times
